Results as given in PubChem BioAssay AID330 (DTP/NCI, 2004).
Values joined by “and” are separate entries in the source; they are usually repeats but may differ in a detail not shown here. Identical values can stand only once. Inconclusive results and toxic doses are left out. The calls were made as follows: active = survival T/C of 150% or more; inactive = T/C below 125% in these data.

Test system: P388 leukemia ip, CD2F1 mice, survival T/C
Experiment: NCI In Vivo Anticancer Drug Screen. Data for tumor model P388 Leukemia (intraperitoneal) in CD2F1 (CDF1) mice
Conditions: endpoint: median survival time, higher = longer survival
Method in brief: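 Mice carrying the transplanted tumor received test compound or vehicle. Survival was recorded in each group, and the value is the treated-group measurement divided by that of the vehicle-treated control group.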

[1] = dose: 50.0 mg/kg/injection, schedule: Q01DX005 (ip), vehicle: Klucel (hydroxypropylcellulose) (HPC)
[2] = dose: 100.0 mg/kg/injection, schedule: Q01DX005 (ip), vehicle: Klucel (hydroxypropylcellulose) (HPC)
[3] = dose: 200.0 mg/kg/injection, schedule: Q01DX005 (ip), vehicle: Klucel (hydroxypropylcellulose) (HPC)
[4] = dose: 50.0 mg/kg/injection, schedule: Q01DX005 (ip), vehicle: saline with Tween-80
[5] = dose: 100.0 mg/kg/injection, schedule: Q01DX005 (ip), vehicle: saline with Tween-80
[6] = dose: 200.0 mg/kg/injection, schedule: Q01DX005 (ip), vehicle: saline with Tween-80
[7] = dose: 12.5 mg/kg/injection, schedule: Q01DX005 (ip), vehicle: Klucel (hydroxypropylcellulose) (HPC)
[8] = dose: 25.0 mg/kg/injection, schedule: Q01DX005 (ip), vehicle: Klucel (hydroxypropylcellulose) (HPC)
[9] = dose: 25.0 mg/kg/injection, schedule: Q01DX009 (ip), vehicle: saline
[10] = dose: 50.0 mg/kg/injection, schedule: Q01DX009 (ip), vehicle: Klucel (hydroxypropylcellulose) (HPC)
[11] = dose: 100.0 mg/kg/injection, schedule: Q01DX009 (ip), vehicle: Klucel (hydroxypropylcellulose) (HPC)
[12] = dose: 200.0 mg/kg/injection, schedule: Q01DX009 (ip), vehicle: Klucel (hydroxypropylcellulose) (HPC)
[13] = dose: 12.5 mg/kg/injection, schedule: Q01DX009 (ip), vehicle: saline with Tween-80
[14] = dose: 25.0 mg/kg/injection, schedule: Q01DX009 (ip), vehicle: saline with Tween-80

Measured: T/C

OC1(C2CCCC2)C2C=CC1C1CCCCCCC12 (centres undefined)
inactive: dose: 100.0 mg/kg/injection, schedule: Q04DX002 (ip), vehicle: saline with Tween-80 100 % of control | dose: 200.0 mg/kg/injection, schedule: Q04DX002 (ip), vehicle: saline with Tween-80 100 % of control | dose: 400.0 mg/kg/injection, schedule: Q04DX002 (ip), vehicle: saline with Tween-80 97 % of control

O=C(O)CNC(=S)C(=S)NCC(=O)O
inactive: [1] 101 % of control | [2] 97 % of control | [3] 90 % of control

C#CC(OS(=O)(=O)C(F)(F)F)=C(C)C
inactive: [4] 99 % of control | [5] 100 % of control | [6] 100 % of control

O=NNc1nc2ccccc2s1
inactive: dose: 1.56 mg/kg/injection, schedule: Q01DX009 (ip), vehicle: water 97 % of control | dose: 3.12 mg/kg/injection, schedule: Q01DX009 (ip), vehicle: water 100 % of control and 105 % of control | dose: 6.25 mg/kg/injection, schedule: Q01DX009 (ip), vehicle: water 106 % of control and 109 % of control | dose: 12.5 mg/kg/injection, schedule: Q01DX009 (ip), vehicle: water 100 % of control and 92 % of control | dose: 25.0 mg/kg/injection, schedule: Q01DX009 (ip), vehicle: water 102 % of control and 106 % of control | dose: 50.0 mg/kg/injection, schedule: Q01DX009 (ip), vehicle: water 92 % of control

CCOC(=O)c1cc2cc3c4c(c2oc1=O)CCCN4CCC3
inactive: [7] 106 % of control | [8] 110 % of control | [1] 107 % of control and 111 % of control

Oc1cc(CN2CCCCC2)c(O)cc1CN1CCCCC1
inactive: dose: 3.12 mg/kg/injection, schedule: Q01DX009 (ip), vehicle: saline 106 % of control | dose: 6.25 mg/kg/injection, schedule: Q01DX009 (ip), vehicle: saline 106 % of control | dose: 12.5 mg/kg/injection, schedule: Q01DX009 (ip), vehicle: saline 98 % of control | [9] 104 % of control

CC(C)c1nccn1Cc1c(Cl)cccc1Cl
inactive: [10] 102 % of control | [11] 95 % of control | [12] 96 % of control

Clc1ccc(N=C2N=C(Nc3ccc(Cl)cn3)c3ccccc32)nc1
inactive: [13] 86 % of control | [14] 89 % of control | dose: 50.0 mg/kg/injection, schedule: Q01DX009 (ip), vehicle: saline with Tween-80 87 % of control and 95 % of control

CC(CCOCCCBr)OC(=O)CCOCCC(=O)OC(C)CCOCCCBr (centres undefined)
inactive: [1] 100 % of control | [2] 98 % of control | [3] 100 % of control

CS(=O)(=O)c1ccc(/C(=N/N)c2ccccc2)cc1
inactive: dose: 12.5 mg/kg/injection, schedule: Q01DX009 (ip), vehicle: Klucel (hydroxypropylcellulose) (HPC) 103 % of control | dose: 25.0 mg/kg/injection, schedule: Q01DX009 (ip), vehicle: Klucel (hydroxypropylcellulose) (HPC) 102 % of control | [10] 101 % of control and 93 % of control

CCCCCCCCCCCCCCCCCc1cccc(OC)c1
inactive: dose: 7.5 mg/kg/injection, schedule: Q01DX009 (ip), vehicle: saline with Tween-80 95 % of control | dose: 15.0 mg/kg/injection, schedule: Q01DX009 (ip), vehicle: saline with Tween-80 97 % of control | dose: 30.0 mg/kg/injection, schedule: Q01DX009 (ip), vehicle: saline with Tween-80 110 % of control

O=P1(N(CCCl)CCCl)Nc2cc3ccccc3cc2N1
inactive: dose: 3.13 mg/kg/injection, schedule: Q01DX009 (ip), vehicle: saline with Tween-80 103 % of control | dose: 6.25 mg/kg/injection, schedule: Q01DX009 (ip), vehicle: saline with Tween-80 96 % of control | [13] 99 % of control | [14] 100 % of control

COC(=O)C(CCSC)NC(=O)C(Cc1c[nH]c2ccccc12)NC(=O)OC(C)(C)C (centres undefined)
inactive: [10] 86 % of control | [11] 97 % of control | [12] 106 % of control

O=C(CCN1CCCC1)Nc1nc(-c2ccc(Cl)cc2)cs1
inactive: [4] 102 % of control | [5] 93 % of control | [6] 94 % of control

COc1ccc2c(C)cc(N/N=C(\C)c3ccccn3)nc2c1
inactive: dose: 3.12 mg/kg/injection, schedule: Q01DX005 (ip), vehicle: Klucel (hydroxypropylcellulose) (HPC) 100 % of control | dose: 6.25 mg/kg/injection, schedule: Q01DX005 (ip), vehicle: Klucel (hydroxypropylcellulose) (HPC) 98 % of control | [7] 90 % of control and 97 % of control | [8] 95 % of control | [1] 98 % of control and 97 % of control

COc1cc(Br)c(C2SCC(=O)N2c2nncs2)cc1OC (centres undefined)
inactive: dose: 60.0 mg/kg/injection, schedule: Q01DX005 (ip), vehicle: Klucel (hydroxypropylcellulose) (HPC) 121 % of control | dose: 120.0 mg/kg/injection, schedule: Q01DX005 (ip), vehicle: Klucel (hydroxypropylcellulose) (HPC) 106 % of control | dose: 240.0 mg/kg/injection, schedule: Q01DX005 (ip), vehicle: Klucel (hydroxypropylcellulose) (HPC) 100 % of control

C=C1C(=O)OC2/C=C(\C)C3OC3/C=C(/C(=O)OC)C(O)C(OC(=O)C3(C)OC3C)C12 (centres undefined)
inactive: dose: 3.0 mg/kg/injection, schedule: Q01DX009 (ip), vehicle: Klucel (hydroxypropylcellulose) (HPC) 115 % of control and 123 % of control | dose: 6.0 mg/kg/injection, schedule: Q01DX009 (ip), vehicle: Klucel (hydroxypropylcellulose) (HPC) 120 % of control and 123 % of control | dose: 12.0 mg/kg/injection, schedule: Q01DX009 (ip), vehicle: Klucel (hydroxypropylcellulose) (HPC) 119 % of control | dose: 24.0 mg/kg/injection, schedule: Q01DX009 (ip), vehicle: Klucel (hydroxypropylcellulose) (HPC) 94 % of control

C/C(=N\NC(=S)N1CC2CCC(CC2)C1)c1cccc(C)n1
inactive: dose: 6.25 mg/kg/injection, schedule: Q01DX005 (ip), vehicle: saline with Tween-80 102 % of control and 114 % of control | dose: 12.5 mg/kg/injection, schedule: Q01DX005 (ip), vehicle: saline with Tween-80 112 % of control

OC1(c2ccccc2)C(c2ccccc2)=C(c2ccccc2)C(c2ccc(CCCCCCCCc3ccc(C4=C(c5ccccc5)C(O)(c5ccccc5)C(c5ccccc5)=C4c4ccccc4)cc3)cc2)=C1c1ccccc1 (centres undefined)
inactive: dose: 100.0 mg/kg/injection, schedule: Q01DX001 (ip), vehicle: Klucel (hydroxypropylcellulose) (HPC) 86 % of control | dose: 200.0 mg/kg/injection, schedule: Q01DX001 (ip), vehicle: Klucel (hydroxypropylcellulose) (HPC) 89 % of control

Cc1cc(=O)[nH]c(N/N=C/c2ccc(O)cc2)n1
inactive: dose: 18.75 mg/kg/injection, schedule: Q04DX003 (ip), vehicle: saline sonified 90 % of control | dose: 37.5 mg/kg/injection, schedule: Q04DX003 (ip), vehicle: saline sonified 86 % of control | dose: 75.0 mg/kg/injection, schedule: Q04DX003 (ip), vehicle: saline sonified 104 % of control

CSC(N)=Nc1cccc2c1CCCC2
inactive: [9] 100 % of control | dose: 50.0 mg/kg/injection, schedule: Q01DX009 (ip), vehicle: saline 100 % of control | dose: 100.0 mg/kg/injection, schedule: Q01DX009 (ip), vehicle: saline 95 % of control

CCCCN(CCCC)CCCNC(c1ccc(N(C)C)cc1)c1ccc(N(C)C)cc1
inactive: [8] 98 % of control | [1] 104 % of control | [2] 98 % of control | [3] 102 % of control

COc1ccc(OC(=O)/C=C/c2ccccc2)cc1
inactive: dose: 85.0 mg/kg/injection, schedule: Q04DX002 (ip), vehicle: saline with Tween-80 102 % of control

CCCC1(CC(=O)OCC)SCCN1C(=O)OCC (centres undefined)
inactive: dose: 25.0 mg/kg/injection, schedule: Q01DX005 (ip), vehicle: saline with Tween-80 102 % of control | [4] 102 % of control | [5] 102 % of control | [6] 102 % of control

C1=C(CC[Si]23OCCN(CCO2)CCO3)CCCC1
inactive: [1] 110 % of control | [2] 103 % of control | [3] 103 % of control

Oc1c[nH]c(=S)s1
inactive: dose: 12.5 mg/kg/injection, schedule: Q01DX009 (ip), vehicle: other 112 % of control | dose: 25.0 mg/kg/injection, schedule: Q01DX009 (ip), vehicle: other 106 % of control | dose: 50.0 mg/kg/injection, schedule: Q01DX009 (ip), vehicle: other 111 % of control | dose: 100.0 mg/kg/injection, schedule: Q01DX009 (ip), vehicle: other 102 % of control | dose: 200.0 mg/kg/injection, schedule: Q01DX009 (ip), vehicle: other 117 % of control

CSc1nc(N)cc(C(F)(F)F)n1
inactive: [4] 88 % of control | [5] 99 % of control | [6] 97 % of control
